Results published in patent US20190049429A1, “METHOD FOR OBSERVING DYNAMICS OF SWEAT GLANDS” (MANDOM CORPORATION, priority 2016, published 2019).

How the values were obtained:
Assay type in all cases: cell-based, human
[1] = system: isolated whole sweat glands; assay: Evaluation of test substance for perspiration-controlling action: moving distance of cells in whole sweat glands stimulated with pilocarpine; conditions: atropine pre-incubated 30 minutes, pilocarpine 10 mM after 10 minutes
Protocol: Whole sweat glands were observed by time-lapse imaging in the same manner as in Example 1 except that Krebs-Ringer solution was used in place of PBS, that atropine as a test substance was added onto the whole sweat glands before observing the whole sweat glands by using time-lapse imaging and thereafter the whole sweat glands were incubated for 30 minutes, and that pilocarpine was added onto the whole sweat glands so as to have a concentration of 10 mM after 10 minutes passed from the initiation of the observation (Experiment No. 1). Next, cells E, F, G, H and I were selected from the image of FIG. 21, and a moving distance of each cell was examined in the same manner as in Example 1. Next, the average value of moving distances of cells was obtained by using the moving distance of each cell. The scale bar in FIG. 21 means 50 μm.
In addition, whole sweat glands were observed by time-lapse imaging in the same manner as in Example 1 except that Krebs-Ringer's solution was used in place of PBS and that pilocarpine was added onto the whole sweat glands so as to have a concentration of 10 mM after 10 minutes passed from the initiation of the observation (Experiment No. 2). Next, cells J, K, L, M and N were selected from the image of FIG. 22, and a moving distance of each cell was examined in the same manner as in Example 1. […]

[2] = system: isolated whole sweat glands; assay: Time-lapse imaging of stained isolated whole sweat glands held with collagen in PBS: moving distance of cells after stimulant; conditions: pilocarpine 10 mM added 60 seconds after initiation of observation, when 150 to 300 seconds passed from initiation, FIG. 5
Protocol: As skin tissues, skin tissues which were refrigerated immediately after removal from living donors and stored at 4° C. for 15 hours were used. The skin tissues were immersed in a phosphate-buffered saline containing 10 μM Neutral Red, to incorporate Neutral Red into sweat glands included in the skin tissues. Next, the dermis of each of the skin tissues was finely cut to obtain dermal segments. Whole sweat glands were collected from the dermal segments by using tweezers under an optical microscope. […]
After 5 minutes passed from the addition of the buffer, the observation with the time-lapse imaging of the whole sweat glands on the glass bottom dish was started by using a confocal laser scanning microscope for biological use (inverted microscope (manufactured by Olympus Corporation, trade name: IX-83) equipped with FV 1200 manufactured by Olympus Corporation)). At that time, the whole sweat glands were visualized by detecting fluorescence derived from the nuclear staining reagent bound to the nucleus and fluorescence derived from the cytoskeleton-staining reagent bound to the cytoskeleton. […]
wherein n is the same as mentioned above. […] The actual moving distance (μm) of the cell was calculated by multiplying the movement value by the size per coordinate 1.

[3] = system: isolated whole sweat glands; assay: Time-lapse imaging of whole sweat glands in Krebs-Ringer solution: outer and inner diameter index values of sweat gland tubule after stimulant; conditions: pilocarpine 10 mM added after 10 minutes
Protocol: Whole sweat glands were observed by time-lapse imaging in the same manner as in Example 1 except that Krebs-Ringer solution (composition: 125 mM sodium chloride, 5 mM potassium chloride, 1 mM calcium chloride, 1. 2 mM magnesium chloride, 25 mM sodium bicarbonate, 1.2 mM dihydrogen phosphate sodium, 5 mM glucose and 10 mg/100 mL of fatty acid-free bovine serum albumin, pH 7.48) was used in place of PBS. After 10 minutes passed from the initiation of the observation, pilocarpine which was a sweat gland contraction-inducing reagent (stimulant) was added to the whole sweat glands so as to have a concentration of 10 mM, and thereafter the observation of the whole sweat glands using the time-lapse imaging was continued. Next, changes of each outer diameter index values at the determined sites (A) to (C) shown in FIG. 17 with the passage of time were obtained by using the image analysis software (manufactured by BITPLANE, trade name: Imaris). The outer diameter index value was obtained by stacking data in the Z direction and performing calculation in which the image analysis software was used in the “Surface” mode under the following setting conditions: In FIG. 17, the determined site (A) is a portion enveloped by myoepithelial cells. The determined site (B) and the determined site (C) are portions which are not enveloped by myoepithelial cells, and which are flow pathways for sweat. Further, the scale bar in FIG. 17 means 50 μm. After cancelling the stacking of the data in the Z direction, changes of an inner diameter index value at the determined sites (A) to (C) shown in FIG. 18 were calculated with one kind of data in the Z direction. The internal diameter index value was obtained by preparing the surface model, then extracting the components included in the surface model with Mask tool included in an image analysis software and performing calculation with the image analysis software under the following setting conditions: […]

[4] = site not enveloped by myoepithelial cells, FIG. 19
[5] = site not enveloped by myoepithelial cells, FIG. 20

Structure (SMILES)	perspiration-controlling action judged from sweat gland dynamics [1]	changes of a moving distance of each cell included in the sweat glands with the passage of time, compared with sweat glands not contacted with atropine ([1]; Krebs-Ringer solution, FIG. 23 vs FIG. 24)	moving distances of the cell A, the cell B, the cell C, and the cell D [2]	outer diameter index value at the determined site (A) ([3]; site enveloped by myoepithelial cells, FIG. 19)	inner diameter index value at the determined site (A) ([3]; site enveloped by myoepithelial cells, FIG. 20)	outer diameter index value at the determined site (B) [3, 4]	outer diameter index value at the determined site (C) [3, 4]	diameter index value at the determined site (B), results of FIG. 20 [3, 5]	diameter index value at the determined site (C), results of FIG. 20 [3, 5]
CN1[C@@H]2CC[C@H]1C[C@@H](OC(=O)C(CO)c1ccccc1)C2 (stereo partly drawn) [atropine]	has an antiperspirant action	smaller	–	–	–	–	–	–	–
CC[C@@H]1C(=O)OC[C@@H]1Cc1cncn1C [pilocarpine]	–	–	become larger	decreases after stimulating with the stimulant and then increases	greatly decreases after stimulating with the stimulant and then increases	increases after stimulating with the stimulant	hardly changes after stimulating with the stimulant	hardly changes immediately after stimulating with the stimulant, but the outer diameter index value increases when passing a certain time	hardly changes immediately after stimulating with the stimulant, but the outer diameter index value increases when passing a certain time
